From patent publication US11952368B2, “FAPI dimer compound, FAPI dimer-based positron emission tomography (PET) imaging agent for tumor diagnosis, and preparation method and use thereof” (XIAMEN UNIVERSITY, priority 2021, dated 2024)

Columns and labels:
[1] = Stability test: incubation in PBS or FBS, radiochemical purity by HPLC; format: in vitro ADME; conditions: 37° C., 1 h, 2 h, and 4 h
Protocol: (§1) 20 μL of a solution of the ^68Ga-2PEG(3)-FAPI-dimer (3.7 MBq activity/20 μL) prepared in Example 1 (with normal saline (NS) as a solvent) was taken and added to a centrifuge tube with 100 μL of FBS, and incubated at 37° C. for 1 h, 2 h, and 4 h to obtain an FBS co-incubation solution; 20 μL of the FBS co-incubation solution was taken, 40 μL of acetonitrile was added for protein precipitation, and a resulting mixture was filtered through a 0.22 μm needle filter membrane; and a radiochemical purity was analyzed through HPLC.
as §1, with “NS” for “normal saline (NS)”, “PBS (pH=7.4),” for “FBS,”, “a PBS” for “an FBS”, “PBS” for “FBS”, “taken” for “taken, 40 μL of acetonitrile was added for protein precipitation,”, “and” for “and a resulting mixture was”

[2] = target: T1, FAP on CAFs (Homo sapiens, UniProt Q12884); experiment: FAP binding assay (radioligand competition) on CAFs; conditions: radiolabeled compound co-incubated 60 min with corresponding unlabeled FAPI derivative
T1 construct: FAP-expressing CAFs were inoculated in a 24-well plate; endogenous in cells; host or cells: cancer-associated fibroblasts (CAFs)
T1 sequence (Q12884 1-760): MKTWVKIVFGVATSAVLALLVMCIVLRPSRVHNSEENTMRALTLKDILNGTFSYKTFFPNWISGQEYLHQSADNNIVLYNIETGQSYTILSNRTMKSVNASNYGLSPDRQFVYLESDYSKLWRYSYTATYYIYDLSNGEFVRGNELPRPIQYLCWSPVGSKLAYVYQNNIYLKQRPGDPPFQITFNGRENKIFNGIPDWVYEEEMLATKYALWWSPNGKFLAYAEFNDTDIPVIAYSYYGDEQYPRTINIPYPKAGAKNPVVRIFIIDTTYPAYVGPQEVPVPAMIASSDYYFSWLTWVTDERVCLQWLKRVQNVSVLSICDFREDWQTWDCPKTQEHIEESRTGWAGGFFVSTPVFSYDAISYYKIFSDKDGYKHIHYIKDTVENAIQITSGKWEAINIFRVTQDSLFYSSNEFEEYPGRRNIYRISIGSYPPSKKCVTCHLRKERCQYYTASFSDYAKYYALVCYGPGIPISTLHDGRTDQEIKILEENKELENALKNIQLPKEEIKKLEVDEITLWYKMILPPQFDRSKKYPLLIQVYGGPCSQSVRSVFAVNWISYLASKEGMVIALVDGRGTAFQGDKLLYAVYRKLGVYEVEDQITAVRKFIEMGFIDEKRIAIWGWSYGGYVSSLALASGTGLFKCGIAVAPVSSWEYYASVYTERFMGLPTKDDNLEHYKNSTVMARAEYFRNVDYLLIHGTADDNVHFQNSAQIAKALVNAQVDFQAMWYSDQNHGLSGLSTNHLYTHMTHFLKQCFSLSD
Protocol: FAP-expressing CAFs were inoculated in a 24-well plate and cultivated with a 10% (volume fraction) FBS-containing 1640 medium for 48 h before the experiment until a cell density was about 80% to 90%; the medium was changed to an FBS-free 1640 medium; and the ^68Ga-2PEG(3)-FAPI-dimer, ^68Ga-FAPI-46, or ^68Ga-2PEG(3)-FAPI-dimer+11.3 nmol FAPI-46 (for the blocking experiment) was added to the 24-well plate and incubated, with predetermined intervals of 10 min, 30 min, 60 min, 90 min, and 120 min. The FAP binding assay was conducted after a radiolabeled compound and a corresponding unlabeled FAPI derivative (1.27×10^−4-10^−13 mol/L of 2PEG(3)-FAPI-dimer was added to ^68Ga-2PEG(3)-FAPI-dimer; and 2.83×10^−4-1×10^−13 mol/L of FAPI-46 was added to ^68Ga-FAPI-46) were co-incubated for 60 min. A half-inhibitory concentration (IC50s) was calculated by using GraphPad Prism to fit data through nonlinear regression. In each step of the experiment, cells were washed twice with 1 mL of PBS. Finally, CAFs were lysed with 0.5 mL of a 1 mol/L NaOH aqueous solution to conduct radioactive counting with a gamma counter. 3 parallel replicates were set for each experiment.

[3] = test system: HCC-PDX-1; experiment: PET imaging in HCC-PDX-1 model; format: in vivo, mouse
Protocol: (§2) The PET imaging and biodistribution studies were conducted in HCC-PDX1 and HCC-PDX2 mouse models. The histological verification was first conducted, where the immunohistochemical staining and H&E staining were conducted for FAP and Ki67, a tumor tissue was digested for protein extraction, and the expression of FAP was detected by Western Blot. Verification results were shown in FIG. 6A-B, where the immunohistochemical staining result was shown in FIG. 6A and the Western Blot result was shown in FIG. 6B. […] Therefore, the models can be used for further mouse experiments.
(§3) The products of ^68Ga-2PEG(3)-FAPI-dimer and ^68Ga-FAPI-46 were each diluted to a concentration of 74 MBq/mL. 7.4 MBq of ^68Ga-2PEG(3)-FAPI-dimer or 7.4 MBq of ^68Ga-FAPI-46 was injected into the HCC-PDX model through the tail vein (3 parallel experiments per group). All PET scans were conducted with an Inveon small animal PET scanner (Siemens Preclinical Solution, USA). The dynamic PET imaging was conducted with a scan duration of 60 min and reconstructed frames of 10×30 s, 10×60 s, 10×120 s, and 9×160 s. The 10 min static PET imaging was conducted with acquisition time points of 0.5 h, 1 h, 2 h, and 4 h after injection. For the blocking experiment, 30 nmol of unlabeled FAPI-46 was added to a ^68Ga-2PEG(3)-FAPI-dimer solution (with NS as a solvent) before injection. An image was iteratively reconstructed with 3D OPMAP 256.pPetRcn (Siemens) and converted into a % ID/g image. Region of interests (ROIs) in the tumor, liver, heart, kidney, and muscle were calculated on PET images to quantify radioactive signals.

[4] = test system: HCC-PDX-2; experiment: PET imaging in HCC-PDX-2 model; format: in vivo, mouse; conditions: HCC-PDX-2, 7.4 MBq via tail vein
Protocol: as §2
as §3, with “For the blocking experiment, 30 nmol of unlabeled FAPI-46 was added to a ^68Ga-2PEG(3)-FAPI-dimer solution (with NS as a solvent) before injection. An image was iteratively reconstructed with 3D OPMAP 256.pPetRcn (Siemens) and converted into a % ID/g image.” left out

radiochemical purity after incubation in FBS ([1]; FBS): greater than 90% | radiochemical purity after incubation in PBS ([1]; PBS (pH=7.4)): greater than 90% | IC50 [2]: 3.57 nM | uptake in normal organs ([3]; HCC-PDX-1, 7.4 MBq via tail vein, PET): low and decline rapidly | uptake and residence in tumor tissue compared with ^68Ga-FAPI-46 ([3]; HCC-PDX-1, 7.4 MBq via tail vein, PET 0.5 h, 1 h, 2 h, 4 h): better than | blocking of tumor uptake by unlabeled FAPI-46 ([3]; two liver cancer PDX models (HCC-PDX-1 and HCC-PDX-2), 30 nmol unlabeled FAPI-46): can be blocked by unlabeled FAPI-46 | uptake in normal organs ([4]; PET): low and decline rapidly | uptake and residence in tumor tissue compared with ^68Ga-FAPI-46 ([4]; PET 0.5 h, 1 h, 2 h, 4 h): better than
SMILES: CN(CCCN1CCN(C(=O)COCCOCCOCCNC(=O)CCC(=O)N[C@@H](CCCCNC(=O)CN2CCN(CC(=O)[O-])CCN(CC(=O)[O-])CCN(CC(=O)[O-])CC2)C(=O)NCCOCCOCCOCC(=O)N2CCN(CCCN(C)c3ccc4nccc(C(=O)NCC(=O)N5CC(F)(F)C[C@H]5C#N)c4c3)CC2)CC1)c1ccc2nccc(C(=O)NCC(=O)N3CC(F)(F)C[C@H]3C#N)c2c1.[68Ga+3] [^68Ga-2PEG(3)-FAPI-dimer]
